US6444645B1, “Crosslink-stabilized indolicidin analogs” (The Regents of the University of California, priority 1998, dated 2002)
Where two headings read alike, the source gives them in different places.

Assays:
Candida albicans 16820 = conditions: 10, 30, 100 or 300 μg/ml in 10 mM PIPES pH 7.4; FIG. 5
Experimental: (§1) Nutrient-containing agar (or agarose) plates were seeded with E. coli ML35, C. neoformans 271A, S. aureus 207A or C. albicans 16820. […] Following an initial incubation interval of 1 to 4 hr, the well-containing layer was overlayed with enriched (2×normal) solid medium in order to support microbial growth outside the perimeter of inhibition. After overnight incubation at 30° C. to 37° C., the antimicrobial activity was quantitated by measuring the clear zones around each well (zone of inhibition).

[1] = system: Cryptococcus neoformans 271A; conditions: 10, 30, 100 or 300 μg/ml in 10 mM PIPES pH 7.4; FIG. 3
Experimental: as §1

Escherichia coli ML35 = conditions: 10, 30, 100 or 300 μg/ml in 10 mM PIPES pH 7.4; FIG. 2
Experimental: as §1

[2] = system: Staphylococcus aureus 207A; conditions: 10, 30, 100 or 300 μg/ml in 10 mM PIPES pH 7.4; FIG. 4
Experimental: as §1

C. albicans = conditions: 60 min, 10 mM PIPES pH 7.4
Experimental: (§2) Microbicidal activity was measured by first incubating the target organism with the peptide in 10 mM PIPES buffer (pH 7.4), then plating the suspension to quantitate surviving microorganisms.
(§3) Cultures were grown to mid log phase in an appropriate medium, harvested, washed, and resuspended to 1-2×10^7 colony forming units (CFU) per ml. To conserve peptide, the incubation volume usually was 0.05 ml, with the final cell concentration being 1-2×10^6 CFU/ml. Peptide stock solutions, usually made up in […], were diluted in the incubation buffer to a final concentration of 1 μg/ml to 30 μg/ml, and the incubation was initiated by addition of an appropriate volume of the bacterial or fungal stock suspension to the prewarmed (37° C.) peptide-buffer mixture. E. coli and S. aureus were incubated with peptide for 30 min; C. albicans was incubated for 60 min; and C. neoformans was incubated for 4 hr. Following incubation, 50 μl or 100 μl samples were removed and diluted serially, then plated on nutrient-containing agar plates.

C. neoformans 271A = conditions: 4 hr
Experimental: as §2, §3

E. coli ML35 = conditions: 30 min
Experimental: as §2, §3

S. aureus 207A = conditions: 30 min
Experimental: as §2, §3

α-chymotrypsin = α-chymotrypsin 1% by weight, 0.1 M Tris buffer pH 7.7, 37° C., RP-HPLC
[3] = 10 μg/ml peptide, 10 mM PIPES pH 7.4

## Ile-Leu-Pro-Trp-Lys-Trp-Pro-Trp-Trp-Pro-Trp-Arg-Arg-CONH2 [Indol 1-13]
Candida albicans 16820
  growth inhibition (zone of inhibition): inhibited the growth of each microorganism tested in a dose dependent manner
[1]
  growth inhibition (zone of inhibition): inhibited the growth of each microorganism tested in a dose dependent manner
Escherichia coli ML35
  growth inhibition (zone of inhibition): inhibited the growth of each microorganism tested in a dose dependent manner
[2]
  growth inhibition (zone of inhibition): inhibited the growth of each microorganism tested in a dose dependent manner
C. albicans; 10 μg/ml peptide
  reduction of survival (CFU): about two orders of magnitude
C. albicans; 30 μg/ml peptide
  reduction of survival (CFU): greater than three orders of magnitude
C. neoformans 271A; [3]
  reduction of survival (CFU): greater than three orders of magnitude
C. neoformans 271A; 30 μg/ml peptide
  additional killing versus 10 μg/ml: minimal additional killing
E. coli ML35; [3]
  reduction of survival (CFU): greater than three orders of magnitude
E. coli ML35; 30 μg/ml peptide
  additional killing versus 10 μg/ml: minimal additional killing
S. aureus 207A; [3]
  reduction of survival (CFU): greater than three orders of magnitude
S. aureus 207A; 30 μg/ml peptide
  additional killing versus 10 μg/ml: minimal additional killing
α-chymotrypsin
  time within which all of the peptide was digested: ≤ 6 h
